pKi: −log10 of the molar value. Activity calls are given as the source filed them. The rule behind the calls is not given here. A value given as a limit tells only on which side of the number the result lay.

One data set concerns the target GABA-A receptor; anion channel (Rattus norvegicus) (UniProt O09028+P15431+P18506+P18508+P19969+P20236+P23574+P23576+P28471+P28473+P30191+P62813+P63079+P63138+Q91ZM7+Q9ES14). As to the kind of experiment: Receptor occupancy in vivo by displacement of [3H]Ro 15-1788 binding from GABA-A receptor in rat at 1 mg/kg, po. On the set-up: dose 1 mg/kg. Format: functional, organism-based.
Details: not given
For the molecule `N#Cc1cc(F)ccc1-c1cc(-c2cnc3nc(C(F)(F)F)ccn23)ccn1`, the Activity is 50%.

The next data set has as its system Plasma. The data set can be described thus: Receptor occupancy in plasma of rat at 1 mg/kg, po.
Details: not given
It counts as functional.
On to `N#Cc1cc(F)ccc1-c1cc(-c2cnc3nc(C(F)(F)F)ccn23)ccn1`, for which the Activity worked out at 0.15 µM.

The subject of the next data set is Mus musculus. The data set can be described thus: Proconvulsant activity in Swiss Webster mice at 10 mg/kg, ip by pentylenetetrazole assay. It counts as ADME, organism-based. On the set-up: dose 10 mg/kg, route intraperitoneal. The following applies: in vivo.
Turning to `FC(F)(F)c1ccn2c(-c3ccnc(Cl)n3)cnc2n1`, the Activity entry is “Inverse agonist”.

System in another data set: not listed separately
As to the kind of experiment: Metabolism in dog liver microsomes at 1 uM.
Details: not given
Molecule `N#Cc1ccccc1-c1nccc(-c2cnc3nc(C(F)(F)F)ccn23)n1` displayed a metabolized at 1 µM of 56%.

`N#Cc1ccccc1-c1cccc(-c2cnc3nc(C(F)(F)F)ccn23)c1` came in with a metabolized at 1 µM of 100%.

As to `N#Cc1ccccc1-c1cccc(-c2cnc3nc(C(F)(F)F)ccn23)n1`, the metabolized at 1 µM amounted to 15%.

The molecule `N#Cc1ccccc1-c1cc(-c2cnc3nc(C(F)(F)F)ccn23)ccn1` returned a metabolized at 1 µM of 4%.

System in another data set: not listed separately
The data set can be described thus: Rat brain to plasma ratio at 1 mg/kg, po. The note with it: brain and plasma. Format: ADME, organism-based. On the set-up: dose 1 mg/kg, route oral.
Regarding `N#Cc1cc(F)ccc1-c1cc(-c2cnc3nc(C(F)(F)F)ccn23)ccn1`, the Kp is 0.73.

The target in a further data set is T1, GABA-A receptor; alpha-3/beta-3/gamma-2 (Homo sapiens) (UniProt P18507+P28472+P34903). As to the kind of experiment: Efficacy against recombinant human GABA-Aalpha3 receptor plus beta-3-gamma-2 expressed in L(tk-) cells by whole cell patch clamp method. It counts as functional, cell-based.
Details: not given
In the case of `N#Cc1cc(F)ccc1-c1cc(-c2cnc3nc(C(F)(F)F)ccn23)ccn1`, the Efficacy was 22%.

For `N#Cc1ccccc1-c1cccc(-c2cnc3nc(C(F)(F)F)ccn23)c1`, the Efficacy was 59%.

In the case of `COc1cccc(-c2cnc3nc(C(F)(F)F)ccn23)n1`, the Efficacy is -51.6%.

As to `FC(F)(F)c1ccn2c(-c3ccnc(Cl)n3)cnc2n1`, the Efficacy was -24.9%.

Regarding `N#Cc1ccccc1-c1cccc(-c2cnc3nc(C(F)(F)F)ccn23)n1`, the Efficacy was -22%.

Turning to `N#Cc1ccccc1-c1cc(-c2cnc3nc(C(F)(F)F)ccn23)ccn1`, the Efficacy is 45%.

The next data set has as its target GABA-A receptor; alpha-5/beta-3/gamma-2 (Homo sapiens) (UniProt P18507+P28472+P31644). As to the kind of experiment: Displacement of [3H]Ro 15-1788 from recombinant human GABA-Aalpha5 receptor plus beta3gamma2 expressed in L(tk-) cells. It counts as cell-based.
Details: not given
For `N#Cc1ccccc1-c1nccc(-c2cnc3nc(C(F)(F)F)ccn23)n1`, the result was Active.

On to `N#Cc1ccccc1-c1cccc(-c2cnc3nc(C(F)(F)F)ccn23)n1`, for which the outcome was Active.

On to `N#Cc1ccccc1-c1cc(-c2cnc3nc(C(F)(F)F)ccn23)ccn1`, for which the outcome was Active.

For the next data set, the species on record is Canis familiaris. As to the kind of experiment: Stability in dog liver microsomes. It counts as ADME, Canis lupus familiaris, Microsome.
Details: not given
Turning to `N#Cc1cc(F)ccc1-c1cc(-c2cnc3nc(C(F)(F)F)ccn23)ccn1`, the Stability is below 5%.

In a further data set the target is T2, GABA-A receptor; alpha-3/beta-3/gamma-2 (Homo sapiens, UniProt P18507+P28472+P34903).
T2 sequence (P18507 whole entry): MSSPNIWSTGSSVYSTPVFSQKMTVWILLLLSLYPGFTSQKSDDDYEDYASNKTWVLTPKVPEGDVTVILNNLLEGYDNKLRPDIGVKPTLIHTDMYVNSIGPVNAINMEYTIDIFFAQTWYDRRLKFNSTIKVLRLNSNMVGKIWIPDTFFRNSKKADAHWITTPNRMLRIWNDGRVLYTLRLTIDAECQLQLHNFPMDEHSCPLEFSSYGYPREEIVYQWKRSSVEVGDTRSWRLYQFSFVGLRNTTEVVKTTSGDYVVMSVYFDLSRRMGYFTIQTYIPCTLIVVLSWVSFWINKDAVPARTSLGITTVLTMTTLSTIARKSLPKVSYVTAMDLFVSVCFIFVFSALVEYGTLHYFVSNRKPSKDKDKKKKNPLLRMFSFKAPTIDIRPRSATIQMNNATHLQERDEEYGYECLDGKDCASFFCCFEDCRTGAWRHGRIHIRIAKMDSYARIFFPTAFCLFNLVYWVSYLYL
T2 sequence (P28472 whole entry): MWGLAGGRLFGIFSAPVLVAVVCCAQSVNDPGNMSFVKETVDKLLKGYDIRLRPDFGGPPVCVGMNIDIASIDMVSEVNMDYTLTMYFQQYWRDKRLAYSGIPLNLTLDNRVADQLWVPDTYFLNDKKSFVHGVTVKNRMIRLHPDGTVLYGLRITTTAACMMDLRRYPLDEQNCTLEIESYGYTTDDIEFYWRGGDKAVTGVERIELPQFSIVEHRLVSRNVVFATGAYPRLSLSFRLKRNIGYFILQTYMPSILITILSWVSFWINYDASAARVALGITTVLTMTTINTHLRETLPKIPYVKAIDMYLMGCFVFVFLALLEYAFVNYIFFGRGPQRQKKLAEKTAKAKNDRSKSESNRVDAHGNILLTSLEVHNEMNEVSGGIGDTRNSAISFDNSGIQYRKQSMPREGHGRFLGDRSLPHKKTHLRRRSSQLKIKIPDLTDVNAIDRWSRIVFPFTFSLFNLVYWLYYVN
T2 sequence (P34903 whole entry): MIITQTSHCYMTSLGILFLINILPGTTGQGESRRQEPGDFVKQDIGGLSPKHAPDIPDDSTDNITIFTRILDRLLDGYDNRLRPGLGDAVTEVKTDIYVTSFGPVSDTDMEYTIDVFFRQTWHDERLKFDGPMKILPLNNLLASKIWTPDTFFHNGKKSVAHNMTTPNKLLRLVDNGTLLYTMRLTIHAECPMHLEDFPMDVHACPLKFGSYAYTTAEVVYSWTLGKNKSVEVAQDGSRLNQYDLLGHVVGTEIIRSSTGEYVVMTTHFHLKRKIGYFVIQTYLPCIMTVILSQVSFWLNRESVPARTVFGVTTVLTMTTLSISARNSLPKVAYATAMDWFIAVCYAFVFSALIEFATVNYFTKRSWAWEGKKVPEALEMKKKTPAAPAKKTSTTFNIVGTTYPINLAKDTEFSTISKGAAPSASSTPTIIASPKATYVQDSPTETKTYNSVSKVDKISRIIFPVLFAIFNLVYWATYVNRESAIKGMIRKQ
The data set can be described thus: Displacement of [3H]Ro 15-1788 from recombinant human GABA-Aalpha3 receptor plus beta-3-gamma-2 expressed in L(tk-) cells. It counts as cell-based.
Details: not given
`Fc1cccc(-c2cc(-c3cnc4nc(C(F)(F)F)ccn34)ccn2)c1`: the pKi is below 7.48.

For `N#Cc1ccccc1-c1ccnc(-c2cnc3nc(C(F)(F)F)ccn23)n1`, the pKi was below 7.48.

Regarding `COc1cc(-c2cnc3nc(C(F)(F)F)ccn23)ccn1`, the pKi was below 7.48.

Turning to `N#Cc1ccccc1-c1nccc(-c2cnc3nc(C(F)(F)F)ccn23)n1`, the pKi is 8.85.

As to `N#Cc1cc(F)ccc1-c1cc(-c2cnc3nc(C(F)(F)F)ccn23)ccn1`, the pKi was 8.66.

On to `COc1cccc(-c2cnc3nc(C(F)(F)F)ccn23)n1`, for which the pKi is 8.77.

For the molecule `FC(F)(F)c1ccn2c(-c3ccnc(Cl)n3)cnc2n1`, the negative logarithm of the Ki (pKi) is 8.70.

For `N#Cc1ccccc1-c1cccc(-c2cnc3nc(C(F)(F)F)ccn23)n1`, the pKi was 9.34.

`N#Cc1ccccc1-c1cc(-c2cnc3nc(C(F)(F)F)ccn23)ccn1`: the pKi was 8.54.

The target of a further data set is T1, GABA-A receptor; alpha-3/beta-3/gamma-2 (Homo sapiens). As to the kind of experiment: Efficacy against recombinant human GABA-Aalpha3 receptor plus beta-3-gamma-2 as measured by modulation of chloride ion flux. Format: functional.
Details: not given
As for `N#Cc1ccccc1-c1nccc(-c2cnc3nc(C(F)(F)F)ccn23)n1`, the Efficacy is -15%.

Take `N#Cc1cc(F)ccc1-c1cc(-c2cnc3nc(C(F)(F)F)ccn23)ccn1`: the Efficacy turned out to be 21%.

With `N#Cc1ccccc1-c1cccc(-c2cnc3nc(C(F)(F)F)ccn23)c1`, the Efficacy came to 53%.

Consider `COc1cccc(-c2cnc3nc(C(F)(F)F)ccn23)n1`, for which the Efficacy was -9%.

`FC(F)(F)c1ccn2c(-c3ccnc(Cl)n3)cnc2n1`: the Efficacy is -19%.

Turning to `N#Cc1ccccc1-c1cccc(-c2cnc3nc(C(F)(F)F)ccn23)n1`, the Efficacy came out at 10%.

For the molecule `N#Cc1ccccc1-c1cc(-c2cnc3nc(C(F)(F)F)ccn23)ccn1`, the Efficacy was found to be 43%.

The target in a further data set is T3, GABA-A receptor; alpha-1/beta-3/gamma-2 (Homo sapiens) (UniProt P14867+P18507+P28472). As to the kind of experiment: Efficacy against recombinant human GABA-Aalpha1 receptor plus beta-3-gamma-2 expressed in L(tk-) cells by whole cell patch clamp method. It counts as functional, cell-based.
Details: not given
For `N#Cc1cc(F)ccc1-c1cc(-c2cnc3nc(C(F)(F)F)ccn23)ccn1`, the Efficacy is 0%.

As for `N#Cc1ccccc1-c1cccc(-c2cnc3nc(C(F)(F)F)ccn23)c1`, the Efficacy was found to be 19%.

For the molecule `COc1cccc(-c2cnc3nc(C(F)(F)F)ccn23)n1`, the Efficacy is -41.4%.

On to `N#Cc1ccccc1-c1cc(-c2cnc3nc(C(F)(F)F)ccn23)ccn1`, for which the Efficacy stood at 15%.

A further data set has as its target T4, GABA-A receptor; alpha-1/beta-3/gamma-2 (Homo sapiens, UniProt P14867+P18507+P28472).
T4 sequence (P14867 whole entry): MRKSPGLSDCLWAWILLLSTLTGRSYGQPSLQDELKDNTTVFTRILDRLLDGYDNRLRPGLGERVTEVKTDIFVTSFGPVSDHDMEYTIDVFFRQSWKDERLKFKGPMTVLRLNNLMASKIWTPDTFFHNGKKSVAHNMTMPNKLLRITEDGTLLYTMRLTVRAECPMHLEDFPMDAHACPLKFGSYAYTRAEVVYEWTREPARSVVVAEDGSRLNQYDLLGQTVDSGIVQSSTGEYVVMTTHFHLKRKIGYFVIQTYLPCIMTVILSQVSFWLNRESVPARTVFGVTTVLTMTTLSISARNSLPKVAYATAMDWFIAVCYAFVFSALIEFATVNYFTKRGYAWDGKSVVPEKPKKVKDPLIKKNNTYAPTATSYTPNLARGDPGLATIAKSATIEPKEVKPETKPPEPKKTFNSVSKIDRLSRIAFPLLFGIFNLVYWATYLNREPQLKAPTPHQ
T4 sequence (P18507 whole entry): T2 sequence (P18507 whole entry)
T4 sequence (P28472 whole entry): T2 sequence (P28472 whole entry)
As to the kind of experiment: Displacement of [3H]Ro 15-1788 from recombinant human GABA-Aalpha1 receptor plus beta-3-gamma-2 expressed in L(tk-) cells. Format: cell-based.
Details: not given
As to `Fc1cccc(-c2cc(-c3cnc4nc(C(F)(F)F)ccn34)ccn2)c1`, the negative-log Ki (pKi) was below 7.48.

Consider `N#Cc1ccccc1-c1ccnc(-c2cnc3nc(C(F)(F)F)ccn23)n1`, for which the pKi was below 7.48.

On to `COc1cc(-c2cnc3nc(C(F)(F)F)ccn23)ccn1`, for which the pKi was 7.54.

Regarding `N#Cc1ccccc1-c1nccc(-c2cnc3nc(C(F)(F)F)ccn23)n1`, the pKi was 9.00.

Consider `N#Cc1cc(F)ccc1-c1cc(-c2cnc3nc(C(F)(F)F)ccn23)ccn1`, for which the pKi is 9.00.

On to `COc1cccc(-c2cnc3nc(C(F)(F)F)ccn23)n1`, for which the pKi is 8.92.

In the case of `FC(F)(F)c1ccn2c(-c3ccnc(Cl)n3)cnc2n1`, the pKi is 9.03.

In the case of `N#Cc1ccccc1-c1cccc(-c2cnc3nc(C(F)(F)F)ccn23)n1`, the negative-log Ki (pKi) was 9.44.

For the molecule `N#Cc1ccccc1-c1cc(-c2cnc3nc(C(F)(F)F)ccn23)ccn1`, the pKi is 8.60.

The species entered for the next data set is Homo sapiens. The data set can be described thus: Stability in human liver microsomes.
Details: not given
Format: ADME, Microsome.
In turn, `N#Cc1cc(F)ccc1-c1cc(-c2cnc3nc(C(F)(F)F)ccn23)ccn1` gave a Stability below 5%.

Another data set concerns the target T3, GABA-A receptor; alpha-1/beta-3/gamma-2 (Homo sapiens). The data set can be described thus: Efficacy against recombinant human GABA-Aalpha1 receptor plus beta-3-gamma-2 as measured by modulation of chloride ion flux. Format: functional.
Details: not given
In the case of `N#Cc1ccccc1-c1nccc(-c2cnc3nc(C(F)(F)F)ccn23)n1`, the Efficacy was -29%.

For the molecule `N#Cc1cc(F)ccc1-c1cc(-c2cnc3nc(C(F)(F)F)ccn23)ccn1`, the Efficacy worked out at 9%.

Consider `N#Cc1ccccc1-c1cccc(-c2cnc3nc(C(F)(F)F)ccn23)c1`, for which the Efficacy stood at 10%.

Take `COc1cccc(-c2cnc3nc(C(F)(F)F)ccn23)n1`: the Efficacy was -22%.

Consider `FC(F)(F)c1ccn2c(-c3ccnc(Cl)n3)cnc2n1`, for which the Efficacy is -22%.

For `N#Cc1ccccc1-c1cccc(-c2cnc3nc(C(F)(F)F)ccn23)n1`, the Efficacy is -8%.

Turning to `N#Cc1ccccc1-c1cc(-c2cnc3nc(C(F)(F)F)ccn23)ccn1`, the Efficacy came to 4%.

The values above are taken from ChEMBL document CHEMBL1138168, “Imidazo[1,2-a]pyrimidines as functionally selective GABA(A) ligands” (Bioorg Med Chem Lett, 2006).
